Assay results as given in patent US6492563B2, “Fragrance precursors” (Givaudan SA, priority 2000, dated 2002).

Key:
Format in all cases: physicochemical
[1] = Stability tests in aqueous buffer solutions; details: for Stability at pH 2.5: aqueous buffer pH 2.5, 24 h at 37° C.; for Stability at pH 7: aqueous buffer pH 7, 24 h at 37° C.; for Stability at pH 9.5: aqueous buffer pH 9.5, 24 h at 37° C.
[2] = Hand washing tests: partition between water and fabric (substantivity), HPLC; details: for Amounts recovered: Water: extract of aqueous washing liquor after hand washing; for Amounts recovered: Water, % (±10%): extract of aqueous washing liquor; for Amounts recovered: Water, % (±10%) / Amounts recovered: Towel extract, % (±10%): of amount incorporated; for Amounts recovered: Towel extract: extract of dried towels after hand washing; for Amounts recovered: Towel extract, % (±10%): extract of dried towels
Method: (§1) Washing tests were performed according to the following hand washing test cedure with OMO Progress® base which contains the following ingredients:
(§2) 1- The washing powder (2.1 g) containing the phenacyl acetal (I, about 21 mg, 1%) was dissolved in water (500 ml) at room temperature.
2- The towels (35 g) were added to the liquor and mixed with a glass stick.
3- Towels were soaked for 45 minutes with stirring every 15 minutes.
4- The wringed towels were rinsed three times with fresh water (250 ml) with intermediate wringing.
5- Towels were allowed to dry in a dark and odorless place before analysis or evaluation.
The towels were extracted with an organic solvent (preferably t-butyl methyl ether) using a Dionex ASE200 Accelerated Solvent Extractor and the extracts were analyzed by HPLC (Hewlett Packard Series 1100, column: Zorbax Eclipse XDB-C18, dimensions 15 cm×4.6 mm×5 μm).
The washing liquor was extracted with an organic solvent (preferably t-butyl methyl ether, 250 ml) and analyzed by HPLC as above.
The aqueous liquors were extracted with an organic solvent (preferably t-butyl methyl ether) and analytical HPLC gave the results in table 5, which are related to partition between water and fabric.

[3] = Stability in washing liquor (washing conditions, OMO Progress base), HPLC; details: for Stability at pH 11: pH 11, washing conditions as in example 5; for Amount ecovered / Recovered: washing liquor stirred one hour at room temperature; for Amount ecovered: extraction, HPLC; for Recovered: relative to amount incorporated
Method: as §1, §2
The washing liquor (2.1 g washing powder containing 1% phenacyl acetal (I) in 500 ml water), according to 1 in the above described washing procedure, was stirred during one hour at room temperature. Extraction with an organic solvent (preferably t-butyl methyl ether) to recover organic compounds and analysis with HPLC gave the amounts of recovered phenacyl acetal (I), table 4.

[4] = Photolysis of phenacyl acetals (I) in solution, mercury lamp, GC-FID; parameters: key: 0: no cleavage; +: slow cleavage; ++: medium cleavage; +++: fast cleavage; details: solution (ethanol), mercury lamp 150 W, Pyrex, one hour irradiation
Method: Photorelease assays were conducted on solutions (typical concentrations of precursors (I): 0.05% to 0.1% g/v) in organic solvents (preferably ethanol) or on cotton towels after deposition of the phenacyl acetals (I), as described below in the example 3.
The solutions were irradiated with a mercury lamp (150 W) in a borosilicate glass apparatus (Pyrex®) so as to limit the irradiation window to mainly the UVA and UVB spectrum of sun light. The alcoholic solution was irradiated for one hour and samples taken every 15 minutes to analyze the extent of the photolysis.
The presence of the aryl ketone (II) and ester (III) after photolysis in solutions was determined by using GC retention times. Samples (0.2 μl) were injected (on column injection) without further dilution. Gas chromatography-flame ionization detection (GC-FID) was carried out with a Fisons-GC 8000 series apparatus, using a J&W Scientific DB-5 capillary column (30 m, 0.32 mm id, 0.25 μm film, He carrier gas, 85 kPa).
Whereas precursors derived from Oranger Crystals® cleaved fairly slowly (FIG. 1), those derived from acetanisole cleaved fast and Fixolide® precursors even faster. The rates are calculated from the GC analysis (corresponding peak area).

Row | SMILES | Stability at pH 2.5 [1] | Stability at pH 7 [1] | Stability at pH 9.5 [1] | Amounts recovered: Water [2] | Amounts recovered: Water, % (±10%) [2] | Amounts recovered: Towel extract [2] | Amounts recovered: Towel extract, % (±10%) [2] | Stability at pH 11 [3] | Amount ecovered [3] | Recovered [3] | UV-test (release of aryl ketone (II) and ester (III), cleavage) [4]
1 | CCCCCCOC(C)OCC(=O)c1cc2c(cc1C)C(C)(C)C(C)CC2(C)C (centres unmarked) [compound 8, 1-(3,5,5,6,8,8-Hexamethyl-5,6,7,8-tetrahydro-naphthalen-2-yl)-2-(1-hexyloxy-ethoxy)-ethanone] | stable | stable | stable | 16.3 mg | 69% | 8.7 mg | 42% | stable | 22.2 mg | 99% | +++
2 | CCOC(C)OCC(=O)c1cc2c(cc1C)C(C)(C)C(C)CC2(C)C (centres unmarked) [compound 10, 2-(1-Ethoxy-ethoxy)-1-(3,5,5,6,8,8-hexamethyl-5,6,7,8-tetrahydro-naphthalen-2-yl)-ethanone] | – | – | – | – | – | – | – | – | – | – | +++
3 | COc1ccc(C(=O)COC(Cc2ccccc2)OC)cc1 (centres unmarked) [compound 15, 1-(4-Methoxy-phenyl)-2-(1-methoxy-2-phenyl-ethoxy)-ethanone] | – | – | – | – | – | – | – | – | – | – | ++
4 | CC/C=C\CCOC(C)OCC(=O)c1cc2c(cc1C)C(C)(C)C(C)CC2(C)C (centres unmarked) [compound 9, 1-(3,5,5,6,8,8-Hexamethyl-5,6,7,8-tetrahydro-naphthalen-2-yl)-2-(1-hex-3(Z)-enyloxy-ethoxy)-ethanone] | stable | stable | stable | 15.3 mg | 67% | 10.3 mg | 45% | stable | 20.0 mg | 96% | +++
5 | CCCCCCOC(C)OCC(=O)c1ccc2ccccc2c1 (centres unmarked) [compound 11, 2-(1-Hexyloxy-ethoxy)-1-naphthalen-2-yl-ethanone] | – | – | – | – | – | – | – | – | – | – | +
6 | CC(C)=CCCC(C)CCOC(C)OCC(=O)c1ccc2ccccc2c1 (centres unmarked) [compound 12, 2-[1-(3,7-Dimethyl-oct-6-enyloxy)-ethoxy-]1-naphthalen-2-yl-ethanone] | – | – | – | – | – | – | – | – | – | – | +

The remaining lines, values ahead:

Row | Stability at pH 2.5 [1] | Stability at pH 7 [1] | Stability at pH 9.5 [1] | Amounts recovered: Water [2] | Amounts recovered: Water, % (±10%) [2] | Amounts recovered: Towel extract [2] | Amounts recovered: Towel extract, % (±10%) [2] | Stability at pH 11 [3] | Amount ecovered [3] | Recovered [3] | UV-test (release of aryl ketone (II) and ester (III), cleavage) [4] | SMILES
7 | unstable | stable | stable | 18.4 mg | 73% | 11.7 mg | 46% | stable | 25.7 mg | 100% | ++ | CCCCCCOC(C)OCC(=O)c1ccc(OC)cc1 (centres unmarked) [compound 5, 2-(1-Hexyloxy-ethoxy)-1-(4-methoxy-phenyl)-ethanone]
8 | unstable | stable | stable | – | – | – | – | – | – | – | ++ | CCOC(C)OCC(=O)c1ccc(OC)cc1 (centres unmarked) [compound 1, 2-(1-Ethoxy-ethoxy)-1-(4-methoxy-phenyl)-ethanone]
9 | – | – | – | – | – | – | – | – | – | – | ++ | COc1ccc(C(=O)COC(C)OCCC(C)CCC=C(C)C)cc1 (centres unmarked) [compound 7, 2-[1-(3,7-Dimethyl-oct-6-enyloxy)-ethoxy]-1-(4-methoxy-phenyl)-ethanone]
10 | unstable | stable | stable | 13.3 mg | 59% | 14 mg | 62% | stable | 22.3 mg | 100% | ++ | CC/C=C\CCOC(C)OCC(=O)c1ccc(OC)cc1 (centres unmarked) [compound 3, 2-(1-Hex-3(Z)-enyloxy-ethoxy)-1-(4-methoxy-phenyl)-ethanone]
11 | unstable | stable | stable | 15 mg | 63% | 10.5 mg | 44% | stable | 18.5 mg | 83% | ++ | COc1ccc(C(=O)COC(C)OCCc2ccccc2)cc1 (centres unmarked) [compound 2, 1-(4-Methoxy-phenyl)-2-(1-phenethyloxy-ethoxy)-ethanone]
12 | unstable | stable | stable | 14.5 mg | 65% | 17 mg | 47% | stable | 20.8 mg | 94% | ++ | COc1ccc(C(=O)COC(C)OCCCc2ccccc2)cc1 (centres unmarked) [compound 6, 1-(4-Methoxy-phenyl)-2-[1-(3-phenyl-propoxy)-ethoxy]-ethanone]
13 | unstable | stable | stable | 17.5 mg | 75% | 8.9 mg | 38% | stable | 23.5 mg | 100% | ++ | COc1ccc(C(=O)COC(C)OCCC(C)CC(C)(C)C)cc1 (centres unmarked) [compound 4, 1-(4-Methoxy-phenyl)-2-[1-(3,5,5-trimethyl-hexyloxy)-ethoxyl]-ethanone]
